Here are results for two compounds from publication PMC9121888 (Pharmacology Research & Perspectives, 2022).

Series [1] is described as follows: Study 1 plasma pharmacokinetics of verinurad, allopurinol and oxypurinol. It is filed as in vivo, human. The following applies: for Tmax: median (range). As to the method:
Cohort 1 was randomized, double‐blind, and placebo‐controlled and consisted of 12 healthy Asian participants, of whom <50% were Chinese. Cohort 2 was open‐label, consisting of 9 healthy Chinese participants.
In both studies, participants received verinurad capsules with an extended‐release profile. On the days of pharmacokinetic sampling, treatment was given in fasting state.
Verinurad plasma samples were analyzed using similar methodologies as described by Shen et al.[13] with lower and upper limits of quantification of 0.100 ng/mL and 40.0 ng/mL, respectively.

Series [2] deals with serum uric acid (sUA) and urinary uric acid (uUA). The following applies: for sUA mean percentage change from screening: after 300 mg allopurinol QD for 7 days, day 1 (pre-dose); for sUA level at baseline (day –1): following 7 days of 300 mg allopurinol run-in.
The mark [3] stands for this setting: human, plasma, oral, healthy Asian participants, 24 mg verinurad + 300 mg allopurinol QD, Day 1, geometric mean (gCV%), read-out: Cmax.
[4] abbreviates: human, plasma, oral, healthy Asian participants, 24 mg verinurad + 300 mg allopurinol QD, Day 1, read-out: tmax.
Setting [5] is: human, plasma, oral, healthy Asian participants, 24 mg verinurad + 300 mg allopurinol QD, Day 7, geometric mean (gCV%), read-out: AUCτ.
The mark [6] stands for this setting: human, plasma, oral, healthy Asian participants, 24 mg verinurad + 300 mg allopurinol QD, Day 7, geometric mean (gCV%), read-out: Cmax.
Where [7] appears, read: human, plasma, oral, healthy Chinese participants, 12 mg verinurad + 300 mg allopurinol day 1 and QD days 3-9, Day 9, geometric mean (gCV%), read-out: AUCτ.
[8] abbreviates: human, plasma, oral, healthy Chinese participants, 12 mg verinurad + 300 mg allopurinol day 1 and QD days 3-9, Day 9, read-out: tmax.
The mark [9] stands for this setting: human, plasma, oral, healthy Chinese participants, 12 mg verinurad + 300 mg allopurinol, Day 1, geometric mean (gCV%), read-out: AUC.
[10] abbreviates: human, plasma, oral, healthy Chinese participants, 12 mg verinurad + 300 mg allopurinol, Day 1, geometric mean (gCV%), read-out: AUCτ.
[11] abbreviates: human, plasma, oral, healthy Chinese participants, 12 mg verinurad + 300 mg allopurinol, Day 1, geometric mean (gCV%), read-out: Cmax.
Setting [12] is: human, plasma, oral, healthy Chinese participants, 12 mg verinurad + 300 mg allopurinol, Day 1, read-out: tmax.

Like-named read-outs stand apart in the source and are kept apart here.

For the compound `O=c1[nH]c(=O)c2c[nH]nc2[nH]1` [Oxypurinol, oxypurinol], the AUCτ in series [1] (healthy Asian participants, 24 mg verinurad + 300 mg allopurinol QD, Day 1, geometric mean (gCV%)) is listed as 180700 (18.3) ng·h/mL. The Tmax in series [1] (healthy Asian participants, 24 mg verinurad + 300 mg allopurinol QD, Day 7) is 4.00 (3.00–6.00) h; in series [1] (setting [4]), 3 h; in series [1] (setting [8]) it was 3.1 h; in series [1] (setting [12]), 2 h. The Cmax in series [1] (healthy Chinese participants, 12 mg verinurad + 300 mg allopurinol day 1 and QD days 3-9, Day 9, geometric mean (gCV%)) was 8520 (10.5) ng/mL; in series [1] (setting [3]) it was 11100 ng/mL; in series [1] (setting [6]), 7700 ng/mL; in series [1] (setting [11]) it was 11800 ng/mL. In addition, the AUC was 120000 ng·h/mL in series [1] (setting [5]), 139000 ng·h/mL in series [1] (setting [7]), 342000 ng·h/mL in series [1] (setting [9]) and 201000 ng·h/mL in series [1] (setting [10]).

Consider `Oc1ncnc2[nH]ncc12` [allopurinol, reference compound], for which the AUC stood at 6220 ng·h/mL in series [1] (human, plasma, oral, healthy Asian participants, 24 mg verinurad + 300 mg allopurinol QD, Day 1, geometric mean (gCV%), read-out: AUC); 6230 ng·h/mL in series [1] (human, plasma, oral, healthy Asian participants, 24 mg verinurad + 300 mg allopurinol QD, Day 1, geometric mean (gCV%), read-out: AUCτ); 6020 ng·h/mL in series [1] (setting [5]); 5740 ng·h/mL in series [1] (setting [7]); 6210 ng·h/mL in series [1] (setting [9]); 6210 ng·h/mL in series [1] (setting [10]). The Cmax was found to be 1770 ng/mL in series [1] (setting [3]); 1780 ng/mL in series [1] (setting [6]); 1570 ng/mL in series [1] (human, plasma, oral, healthy Chinese participants, 12 mg verinurad + 300 mg allopurinol day 1 and QD days 3-9, Day 9, geometric mean (gCV%), read-out: Cmax); 1940 ng/mL in series [1] (setting [11]). Besides, the Tmax in series [1] (setting [4]) was 2 h; in series [1] (human, plasma, oral, healthy Asian participants, 24 mg verinurad + 300 mg allopurinol QD, Day 7, read-out: tmax), 3 h; in series [1] (setting [8]), 2.55 h; in series [1] (setting [12]), 1.52 h. The “sUA mean percentage change from screening” value in series [2] (healthy Asian participants) is −26.1%; in series [2] (healthy Chinese participants), −23.5%. Moreover, the “sUA level at baseline (day –1)” value turned out to be 4.77 mg/dL in series [2] (healthy Asian participants, screening 6.31 mg/dL) and 4.49 mg/dL in series [2] (healthy Chinese participants, screening 5.64 mg/dL).
